Source: US8455647B2, “6-aminoisoquinoline compounds” (Aerie Pharmaceuticals, Inc., priority 2005, dated 2013)
Structures can show the parent of a compound that is named as a salt.

What was measured:
Type in all cases: in vivo
[1] = tested on: eyes; assay: Topical ocular composition (Example 212), dry eye syndrome; details: composition of Example 212 (0.50 wt %), as a drop twice per day
[2] = tested on: eyes; assay: Topical ocular composition (Example 212), allergic symptoms
[3] = tested on: eyes; assay: Topical ocular composition (Example 212), hyperemia, redness and ocular irritation; details: composition of Example 212 (0.50 wt %), as a drop as needed
[4] = tested on: patient suffering from glaucoma; assay: Topical ocular composition (Example 212) lowering intraocular pressure
Description: Examples of such assays are described in the following reference, incorporated herein by reference: C. Liljebris, G. Selen, B. Resul, J. Sternschantz, and U. Hacksell, “Derivatives of 17-Phenyl-18,19,20-trinorprostaglandin F2α Isopropyl Ester: Potential Anti-glaucoma Agents”, Journal of Medicinal Chemistry, Vol. 38 (2) 1995, pp. 289-304.
(§1) Topical pharmaceutical compositions for lowering intraocular pressure are prepared by conventional methods and formulated as follows: […]
(§2) A compound according to this invention is used as the 6-aminoisoquinoline derivative. […]

[5] = tested on: eyes; assay: Topical ocular composition (Example 212), neuroprotective agent; details: composition of Example 212 (0.50 wt %), as a drop 4 times per day
Description: as §1, §2

[6] = composition of Example 212 (0.50 wt %), as a drop twice per day
[7] = composition of Example 212/213 (0.50 wt %), as a drop twice a day or as needed

O=C(CCl)Nc1ccc2cnccc2c1 [Example E1, 2-chloro-N-(isoquinolin-6-yl) acetamide]
relief of dry eye syndrome [1]: relieves dry eye syndrome
decrease of allergic symptoms [2, 6]: substantially decreases allergic symptoms

NCC(=O)Nc1ccc2cnccc2c1 [Example E40, 2-amino-N-isoquinoline-6-yl-acetamide dihydrochloride]
decrease of hyperemia, redness and ocular irritation [3]: substantially decreases hyperemia, redness and ocular irritation

O=C(CNCc1ccccc1)Nc1ccc2cnccc2c1 [Example E58, 2-(benzylamino)-N-(isoquinolin-6-yl)acetamide]
decrease of intraocular pressure [4, 6]: substantially decreases intraocular pressure

O=C(Nc1ccc2cnccc2c1)OCc1ccccc1 [Example E87, benzylisoquinolin-6-ylcarbamate]
relief of dry eye syndrome [1]: relieves dry eye syndrome
decrease of allergic symptoms [2, 6]: substantially decreases allergic symptoms

O=C(NCc1ccccc1)Nc1ccc2cnccc2c1 [Example E88, 1-benzyl-3-(isoquinolin-6-yl)urea]
decrease of allergic symptoms ([2]; composition of Example 212/213 (0.50 wt %), as a drop as needed): substantially decreases allergic symptoms

O=C(CN1CCOCC1)Nc1ccc2cnccc2c1 [Example E105, N-(isoquinolin-6-yl)-2-morpholinoacetamide]
decrease of hyperemia, redness and ocular irritation [3]: substantially decreases hyperemia, redness and ocular irritation

O=C(Nc1ccncc1)c1ccc(C2CC2C(=O)Nc2ccc3cnccc3c2)cc1 (stereo not shown) [Example E118, 4-(2-(isoquinolin-6-ylcarbamoyl)cyclopropyl)-N-(pyridin-4-yl)benzamide]
decrease of intraocular pressure [4, 7]: substantially decreases intraocular pressure

CNC(=O)c1cccc(NCC(=O)Nc2ccc3cnccc3c2Cl)c1 [Example E119b, 3-(2-(5-chloroisoquinolin-6-ylamino)-2-oxoethylamino)-N-methyl benzamide]
decrease of intraocular pressure [4, 7]: substantially decreases intraocular pressure

CNC(=O)c1cccc(NCS(=O)(=O)Nc2ccc3cnccc3c2)c1 [Example E136, 3-((N-isoquinolin-6-ylsulfamoyl)methylamino)-N-methylbenzamide]
decrease of intraocular pressure [4, 6]: substantially decreases intraocular pressure

N[C@@H](CSCC(C(=O)c1ccc(/C=C/C(=O)Nc2ccc3cnccc3c2)cc1)c1ccccc1)C(=O)O (stereo partly drawn) [Example E207, (2R)-2-amino-3-(3-(4-((E)-3-(isoquinolin-6-ylamino)-3-oxoprop-1-enyl)phenyl)-3-oxo-2-phenylpropylthio)propanoic acid]
neuroprotective agent [5]: serves as a neuroprotective agent
decrease of intraocular pressure ([4]; composition of Example 212 (0.50 wt %), as a drop 4 times per day): substantially decreases intraocular pressure
